Tested on: A2 molecules
Format: binding, human

Substance: M L L A V L Y C L (SEQ ID NO: 5) [tyrosinase 1-9]
- binding affinity for A2 molecules: significantly lower affinity

Source: patent US8282935B2 (priority 2001, dated 2012)
